Measurements taken from ChEMBL document CHEMBL1201862, “PubChem BioAssay data set” (2004).
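Five concentrations, 48 hours, 96-well plates. GI50: concentration for 50% inhibition of growth.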 Calls of active or inactive are those of the source. Cut-off read from the data, not from the text of the source: active = GI50 up to about 1.1 µM and inactive = higher.

Assays:
Experiment in all cases: growth of human tumour cells (NCI), 48 h
UO-31 = tested on: UO-31
UACC-62 = tested on: UACC-62
SNB-75 = tested on: SNB-75
OVCAR-5 = tested on: OVCAR-5
SF-539 = tested on: SF-539
HT-29 = tested on: HT-29
COLO 205 = tested on: COLO 205
HL-60 = tested on: HL-60
SK-MEL-28 = tested on: SK-MEL-28
OVCAR-8 = tested on: OVCAR-8
EKVX = tested on: EKVX
NCI-H226 = tested on: NCI-H226
HOP-92 = tested on: HOP-92
U-251 = tested on: U-251
NCI-H522 = tested on: NCI-H522
SK-OV-3 = tested on: SK-OV-3
SN12C = tested on: SN12C
786-0 = tested on: 786-0
M14 = tested on: M14

Measured: GI50

CCCNC(=O)C(C)C1CCC2(C)C=CC(=O)C(C)=C2C1O (centres undefined)
inactive: UO-31 > 100 µM | UACC-62 > 100 µM | SNB-75 > 100 µM | OVCAR-5 > 100 µM | SF-539 > 100 µM | HT-29 > 100 µM | COLO 205 > 100 µM | HL-60 > 100 µM | SK-MEL-28 > 100 µM | OVCAR-8 > 100 µM | EKVX > 100 µM | NCI-H226 > 100 µM | HOP-92 > 100 µM | U-251 > 100 µM | NCI-H522 > 100 µM | SK-OV-3 > 100 µM | SN12C > 100 µM

Cc1nc2ccc(C(F)(F)F)cc2nc1Nc1ccc(Cl)c(Cl)c1
inactive: UO-31 12.2 µM | UACC-62 12.9 µM | SNB-75 > 10 µM | OVCAR-5 15.4 µM | SF-539 14.1 µM | HT-29 4.68 µM | COLO 205 3.94 µM | HL-60 5.62 µM | SK-MEL-28 12.2 µM | 786-0 4.69 µM | OVCAR-8 12.8 µM | EKVX > 10 µM | NCI-H226 16.1 µM | HOP-92 3.27 µM | U-251 6.46 µM | SK-OV-3 18.9 µM | SN12C 11.9 µM

N#Cc1ccccc1C(Cl)(Cl)c1cnccn1
inactive: UO-31 33.3 µM | UACC-62 30.5 µM | OVCAR-5 > 100 µM | SF-539 32.4 µM | HT-29 57.4 µM | COLO 205 46.9 µM | HL-60 28.6 µM | SK-MEL-28 51.2 µM | 786-0 14.6 µM | OVCAR-8 26.3 µM | EKVX 40 µM | NCI-H226 36.6 µM | HOP-92 25.4 µM | U-251 34.8 µM | NCI-H522 19.8 µM | SK-OV-3 61.1 µM | SN12C 74.8 µM

NCCCCNCCCNC(=O)c1nc(-c2nc(CCN)sc2Cl)sc1Cl
inactive: UO-31 > 100 µM | UACC-62 > 100 µM | SNB-75 72.9 µM | OVCAR-5 > 100 µM | SF-539 48.8 µM | HT-29 > 100 µM | COLO 205 > 100 µM | HL-60 > 100 µM | SK-MEL-28 46.5 µM | OVCAR-8 > 100 µM | EKVX > 100 µM | NCI-H226 > 100 µM | HOP-92 > 100 µM | U-251 > 100 µM | NCI-H522 21 µM | SK-OV-3 > 100 µM | M14 70.1 µM | SN12C > 100 µM

CCCc1[nH]c(SCCCCCCCCSc2nc(-c3ccc(F)cc3)c(CCC)[nH]2)nc1-c1ccc(F)cc1
inactive: UO-31 6.11 µM | UACC-62 5.58 µM | SNB-75 2.11 µM | OVCAR-5 33 µM | SF-539 6.21 µM | HT-29 62.7 µM | COLO 205 77.4 µM | HL-60 6.5 µM | SK-MEL-28 26.7 µM | OVCAR-8 9.84 µM | EKVX 4.89 µM | HOP-92 3.8 µM | U-251 18.7 µM | M14 17.3 µM | SN12C 9.42 µM

Cc1cc(O)nc(NNC(C#N)c2ccc(O)cc2)n1 (centres undefined)
inactive: UO-31 > 100 µM | UACC-62 > 100 µM | SNB-75 > 100 µM | OVCAR-5 > 100 µM | SF-539 > 100 µM | HT-29 > 100 µM | COLO 205 > 100 µM | HL-60 > 100 µM | SK-MEL-28 > 100 µM | 786-0 > 100 µM | OVCAR-8 > 100 µM | NCI-H226 > 100 µM | HOP-92 > 100 µM | U-251 > 100 µM | NCI-H522 > 100 µM | SK-OV-3 > 100 µM | M14 > 100 µM | SN12C > 100 µM

CCNCCCCNCC
inactive: UO-31 > 1230 µM | UACC-62 2750 µM | SNB-75 > 3750 µM | OVCAR-5 > 3750 µM | SF-539 > 3750 µM | HT-29 > 3750 µM | COLO 205 > 3750 µM | HL-60 736 µM | SK-MEL-28 > 3750 µM | OVCAR-8 > 3750 µM | EKVX > 3750 µM | NCI-H226 2420 µM | HOP-92 > 3750 µM | U-251 > 3230 µM | NCI-H522 > 3240 µM | SK-OV-3 > 3750 µM | SN12C > 2330 µM

NC(Cc1cc(I)c(O)c(I)c1)C(=O)O (centres undefined)
inactive: UO-31 > 500 µM | UACC-62 > 279 µM | SNB-75 > 249 µM | OVCAR-5 > 427 µM | SF-539 > 392 µM | HT-29 > 346 µM | COLO 205 263 µM | HL-60 185 µM | SK-MEL-28 > 500 µM | OVCAR-8 > 500 µM | EKVX > 316 µM | NCI-H226 > 500 µM | HOP-92 13.6 µM | U-251 > 500 µM | NCI-H522 44.5 µM | SK-OV-3 > 500 µM | SN12C > 500 µM

O=C(NCCNCCO)N/N=C/c1cccc([N+](=O)[O-])c1
inactive: UO-31 > 100 µM | UACC-62 > 100 µM | SNB-75 > 100 µM | OVCAR-5 > 100 µM | SF-539 > 100 µM | HT-29 > 100 µM | COLO 205 > 100 µM | HL-60 > 100 µM | SK-MEL-28 > 100 µM | 786-0 > 100 µM | OVCAR-8 > 100 µM | NCI-H226 > 100 µM | HOP-92 > 100 µM | U-251 > 100 µM | NCI-H522 > 100 µM | SK-OV-3 > 100 µM | M14 > 100 µM | SN12C > 100 µM

O=C(CC/C(C/C(=N/O)c1ccc(F)cc1)=N/O)N(Cc1ccccc1)Cc1ccccc1
inactive: UO-31 > 100 µM | UACC-62 > 100 µM | SNB-75 > 100 µM | OVCAR-5 > 100 µM | SF-539 > 100 µM | HT-29 > 100 µM | COLO 205 73.8 µM | HL-60 > 100 µM | SK-MEL-28 > 100 µM | 786-0 > 100 µM | OVCAR-8 > 100 µM | EKVX 58.6 µM | NCI-H226 > 100 µM | HOP-92 > 100 µM | U-251 > 100 µM | NCI-H522 > 100 µM | M14 > 100 µM | SN12C > 100 µM

[N-]=[N+]=CC(=O)CCC(NC(=O)C(CCC(=O)C=[N+]=[N-])NC(=O)CCC(N)C(=O)O)C(=O)O (centres undefined)
inactive: UO-31 > 100 µM | UACC-62 > 100 µM | SNB-75 > 100 µM | OVCAR-5 > 100 µM | SF-539 > 100 µM | HT-29 > 100 µM | COLO 205 > 100 µM | HL-60 > 100 µM | SK-MEL-28 > 100 µM | OVCAR-8 > 100 µM | EKVX > 100 µM | NCI-H226 > 100 µM | HOP-92 > 100 µM | U-251 > 100 µM | NCI-H522 > 100 µM | SK-OV-3 > 100 µM | SN12C > 100 µM
